The record followed here is patent publication US20150307520A1, “NOVEL HETEROARYL AND HETEROCYCLE COMPOUNDS, COMPOSITIONS AND METHODS THEREOF” (HUTCHISON MEDIPHARMA LIMITED, priority 2012, published 2015).

Common to all, as to assay type: biochemical
One experiment addresses p110β/p85α (Homo sapiens, UniProt P42338). The experiment can be described thus: Transcreener KINASE Assay, kinase inhibition of p110β/p85α. The following applies: for PI3Kβ IH % @ 1 uM: 1 uM test compound; for IC50: read-out: PI3Kβ IC50. The gist of the method: (§1)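 Steps: compound (2% DMSO final) plus enzyme in HEPES/NaCl/EGTA/CHAPS/3 mM MgCl2/1 mM DTT buffer; start with PIP2/ATP addition (30 uM/10 uM solution); 80 min RT; add ADP detection mix, 60 min RT; read fluorescence polarization.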

In another experiment the target is p110δ/p85α (Homo sapiens, UniProt O00329). The experiment can be described thus: Transcreener KINASE Assay, kinase inhibition of p110δ/p85α. To be noted: for PI3Kδ IH % @ 1 uM: 1 uM test compound; for IC50: read-out: PI3Kδ IC50. Put shortly: as §1
p110δ/p85α, sequence (O00329 whole entry): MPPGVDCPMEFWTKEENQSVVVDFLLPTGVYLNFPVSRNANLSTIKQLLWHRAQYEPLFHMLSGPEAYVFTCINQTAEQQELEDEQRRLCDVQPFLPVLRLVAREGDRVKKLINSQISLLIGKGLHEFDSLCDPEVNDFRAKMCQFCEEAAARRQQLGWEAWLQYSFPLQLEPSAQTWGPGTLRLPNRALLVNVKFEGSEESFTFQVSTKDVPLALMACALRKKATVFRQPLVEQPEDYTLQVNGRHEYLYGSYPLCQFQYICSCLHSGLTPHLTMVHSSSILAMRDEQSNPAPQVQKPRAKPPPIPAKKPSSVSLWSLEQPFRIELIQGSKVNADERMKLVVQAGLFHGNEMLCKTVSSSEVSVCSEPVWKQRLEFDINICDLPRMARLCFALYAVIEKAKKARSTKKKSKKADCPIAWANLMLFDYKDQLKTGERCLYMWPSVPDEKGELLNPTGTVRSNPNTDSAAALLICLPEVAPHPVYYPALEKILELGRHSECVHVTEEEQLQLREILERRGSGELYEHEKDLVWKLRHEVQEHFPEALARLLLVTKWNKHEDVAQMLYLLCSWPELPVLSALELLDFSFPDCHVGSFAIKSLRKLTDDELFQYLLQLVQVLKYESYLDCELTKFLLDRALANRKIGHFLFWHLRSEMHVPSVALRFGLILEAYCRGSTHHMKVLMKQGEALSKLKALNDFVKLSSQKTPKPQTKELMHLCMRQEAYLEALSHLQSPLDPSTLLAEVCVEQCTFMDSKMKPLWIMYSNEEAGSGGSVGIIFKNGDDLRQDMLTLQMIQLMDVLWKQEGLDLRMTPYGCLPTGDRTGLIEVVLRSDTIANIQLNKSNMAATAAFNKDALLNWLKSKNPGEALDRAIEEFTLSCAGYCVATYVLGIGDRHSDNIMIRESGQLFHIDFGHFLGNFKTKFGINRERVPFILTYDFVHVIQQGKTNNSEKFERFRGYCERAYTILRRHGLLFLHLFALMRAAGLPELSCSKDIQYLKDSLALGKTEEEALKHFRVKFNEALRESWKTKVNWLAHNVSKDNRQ
p110δ/p85α, sequence (P27986 whole entry partner): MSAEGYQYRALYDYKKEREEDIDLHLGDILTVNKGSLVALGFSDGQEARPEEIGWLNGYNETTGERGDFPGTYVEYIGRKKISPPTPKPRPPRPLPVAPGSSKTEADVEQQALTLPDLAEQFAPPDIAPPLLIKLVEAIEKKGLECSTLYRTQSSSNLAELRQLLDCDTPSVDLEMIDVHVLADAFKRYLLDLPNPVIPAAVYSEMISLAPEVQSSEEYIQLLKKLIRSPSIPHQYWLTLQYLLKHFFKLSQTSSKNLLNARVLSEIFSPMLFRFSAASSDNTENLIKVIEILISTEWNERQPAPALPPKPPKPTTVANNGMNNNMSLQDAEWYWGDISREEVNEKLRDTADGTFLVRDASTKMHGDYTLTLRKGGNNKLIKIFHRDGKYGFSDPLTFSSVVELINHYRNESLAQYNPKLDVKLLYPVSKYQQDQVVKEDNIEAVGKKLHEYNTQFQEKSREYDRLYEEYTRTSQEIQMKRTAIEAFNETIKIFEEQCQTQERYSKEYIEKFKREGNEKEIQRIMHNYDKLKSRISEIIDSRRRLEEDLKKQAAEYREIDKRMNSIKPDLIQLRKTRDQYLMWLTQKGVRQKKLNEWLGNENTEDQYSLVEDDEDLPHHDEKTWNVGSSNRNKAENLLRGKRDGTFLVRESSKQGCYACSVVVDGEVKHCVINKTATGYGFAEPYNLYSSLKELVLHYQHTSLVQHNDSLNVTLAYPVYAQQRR
The next experiment concerns the target p110γ (Homo sapiens, UniProt P48736). Briefly: Transcreener KINASE Assay, kinase inhibition of p110γ. The following applies: for PI3Kγ IH % @ 1 uM: 1 uM test compound; for IC50: read-out: PI3Kγ IC50. The gist of the method:
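Homogeneous endpoint format using recombinant enzymes; ADP measured by far-red FP immunoassay after 80 min reaction and 60 min detection, both at room temperature.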

p110β/p85α, sequence (P42338 whole entry): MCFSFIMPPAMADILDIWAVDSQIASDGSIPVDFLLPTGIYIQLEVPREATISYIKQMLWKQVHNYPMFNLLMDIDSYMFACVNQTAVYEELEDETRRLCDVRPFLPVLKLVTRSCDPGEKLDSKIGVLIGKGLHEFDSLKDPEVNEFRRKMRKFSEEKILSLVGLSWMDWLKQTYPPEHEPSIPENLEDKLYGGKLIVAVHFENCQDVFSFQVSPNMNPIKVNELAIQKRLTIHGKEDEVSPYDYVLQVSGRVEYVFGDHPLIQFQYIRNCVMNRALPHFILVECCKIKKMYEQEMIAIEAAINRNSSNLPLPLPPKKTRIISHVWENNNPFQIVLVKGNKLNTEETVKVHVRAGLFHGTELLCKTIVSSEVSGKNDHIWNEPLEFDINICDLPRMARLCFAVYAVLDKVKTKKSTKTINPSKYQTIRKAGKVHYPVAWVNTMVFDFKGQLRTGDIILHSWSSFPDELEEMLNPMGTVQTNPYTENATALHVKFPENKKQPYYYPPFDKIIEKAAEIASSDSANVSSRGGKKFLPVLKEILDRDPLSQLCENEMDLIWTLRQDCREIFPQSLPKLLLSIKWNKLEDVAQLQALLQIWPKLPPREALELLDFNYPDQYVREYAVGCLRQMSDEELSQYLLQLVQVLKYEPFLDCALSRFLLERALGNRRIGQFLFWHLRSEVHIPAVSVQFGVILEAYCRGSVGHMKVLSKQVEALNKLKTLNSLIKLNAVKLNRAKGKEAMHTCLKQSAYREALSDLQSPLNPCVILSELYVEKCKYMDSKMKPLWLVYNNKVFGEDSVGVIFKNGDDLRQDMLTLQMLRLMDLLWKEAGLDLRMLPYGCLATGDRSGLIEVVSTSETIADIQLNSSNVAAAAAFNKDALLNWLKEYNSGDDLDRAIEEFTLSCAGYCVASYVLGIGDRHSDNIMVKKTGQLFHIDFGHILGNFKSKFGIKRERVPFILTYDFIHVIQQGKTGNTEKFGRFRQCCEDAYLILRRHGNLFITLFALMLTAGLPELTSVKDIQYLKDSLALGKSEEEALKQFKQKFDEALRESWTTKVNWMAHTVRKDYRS
p110β/p85α, sequence (P27986 2-724 partner): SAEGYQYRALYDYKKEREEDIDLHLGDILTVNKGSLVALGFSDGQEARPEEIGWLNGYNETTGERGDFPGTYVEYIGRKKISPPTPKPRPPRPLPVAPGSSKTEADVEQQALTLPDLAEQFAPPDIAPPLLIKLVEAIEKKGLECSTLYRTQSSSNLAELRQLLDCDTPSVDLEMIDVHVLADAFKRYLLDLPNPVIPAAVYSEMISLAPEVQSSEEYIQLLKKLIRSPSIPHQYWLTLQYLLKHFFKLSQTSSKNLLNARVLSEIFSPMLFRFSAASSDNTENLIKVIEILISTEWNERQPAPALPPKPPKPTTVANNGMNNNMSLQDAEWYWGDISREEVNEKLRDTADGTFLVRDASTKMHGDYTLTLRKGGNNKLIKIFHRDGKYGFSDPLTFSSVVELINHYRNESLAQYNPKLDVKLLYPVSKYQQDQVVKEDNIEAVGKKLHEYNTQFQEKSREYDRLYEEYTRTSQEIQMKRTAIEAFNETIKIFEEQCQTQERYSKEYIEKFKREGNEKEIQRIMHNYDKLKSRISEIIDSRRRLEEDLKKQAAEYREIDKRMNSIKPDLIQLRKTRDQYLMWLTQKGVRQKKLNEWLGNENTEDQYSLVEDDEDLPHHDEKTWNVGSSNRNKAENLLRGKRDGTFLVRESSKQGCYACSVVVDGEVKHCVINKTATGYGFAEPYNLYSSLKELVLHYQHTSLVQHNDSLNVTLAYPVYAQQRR
p110γ, sequence (P48736 whole entry): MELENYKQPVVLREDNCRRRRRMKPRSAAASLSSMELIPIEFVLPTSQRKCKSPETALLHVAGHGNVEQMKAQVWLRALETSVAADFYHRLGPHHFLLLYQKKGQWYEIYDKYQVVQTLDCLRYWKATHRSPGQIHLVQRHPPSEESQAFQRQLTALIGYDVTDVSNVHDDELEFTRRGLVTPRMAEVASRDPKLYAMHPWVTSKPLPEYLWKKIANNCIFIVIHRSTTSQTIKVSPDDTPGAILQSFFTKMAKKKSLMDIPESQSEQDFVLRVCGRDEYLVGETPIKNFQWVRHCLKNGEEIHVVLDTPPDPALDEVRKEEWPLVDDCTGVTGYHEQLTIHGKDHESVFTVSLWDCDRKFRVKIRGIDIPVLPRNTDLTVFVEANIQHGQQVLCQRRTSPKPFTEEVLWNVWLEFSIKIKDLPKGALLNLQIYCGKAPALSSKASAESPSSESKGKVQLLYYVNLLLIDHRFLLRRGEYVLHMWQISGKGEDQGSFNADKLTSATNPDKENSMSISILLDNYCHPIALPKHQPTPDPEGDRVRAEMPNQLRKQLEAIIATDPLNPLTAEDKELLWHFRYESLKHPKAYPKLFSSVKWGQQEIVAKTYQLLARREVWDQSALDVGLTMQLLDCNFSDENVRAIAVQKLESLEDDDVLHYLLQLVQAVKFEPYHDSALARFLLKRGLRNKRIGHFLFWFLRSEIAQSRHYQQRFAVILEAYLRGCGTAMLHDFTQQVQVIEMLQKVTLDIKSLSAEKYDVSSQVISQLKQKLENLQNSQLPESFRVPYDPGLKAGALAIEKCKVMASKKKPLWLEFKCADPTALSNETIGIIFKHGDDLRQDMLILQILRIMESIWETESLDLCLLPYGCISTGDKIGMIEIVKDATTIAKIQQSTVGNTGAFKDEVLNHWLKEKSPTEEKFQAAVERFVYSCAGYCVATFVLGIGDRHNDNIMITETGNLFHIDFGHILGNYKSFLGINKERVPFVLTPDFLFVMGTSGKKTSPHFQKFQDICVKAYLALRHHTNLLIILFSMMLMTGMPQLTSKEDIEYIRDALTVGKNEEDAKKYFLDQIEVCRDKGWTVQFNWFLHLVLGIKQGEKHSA

As usually defined, the IC50 is the concentration at which inhibition is half-maximal. Take `Cc1cccc(-n2c([C@@H]3CCCN3c3ncnc4[nH]cnc34)nn3ccc(Cl)c3c2=O)n1` [Compound 342]: at p110β/p85α, the “PI3Kβ IH % @ 1 uM” value is 45.2%. At p110δ/p85α, the “PI3Kδ IH % @ 1 uM” value was 92.1% and the IC50 is 38 nM. Besides, on p110γ, the “PI3Kγ IH % @ 1 uM” value came out at 77.1% and the IC50 was determined as 272 nM.
On the same counts, the results for `O=c1c2c(Cl)ccn2nc([C@@H]2CCCN2c2ncnc3[nH]cnc23)n1-c1ccncn1` [Compound 344] are 57.3%, 94.8%, 85 nM, 85.5% and 81 nM.
With `N#Cc1c[nH]c2ncnc(N3C[C@@H](F)C[C@H]3c3nn4ccc(Cl)c4c(=O)n3-c3ccccn3)c12` [Compound 345], at p110β/p85α, the “PI3Kβ IH % @ 1 uM” value stood at 93.2% and the IC50 was 28 nM. Also, at p110δ/p85α, the “PI3Kδ IH % @ 1 uM” value was over 100% and the IC50 turned out to be 1 nM. Besides, on p110γ, the “PI3Kγ IH % @ 1 uM” value worked out at 97.1% and the IC50 is 4 nM.
On to `N#Cc1c[nH]c2ncnc(N3C[C@@H](F)C[C@H]3c3nn4ccc(F)c4c(=O)n3-c3ccccn3)c12` [Compound 346], for which, at p110β/p85α, the “PI3Kβ IH % @ 1 uM” value is recorded as 86.1% and the half-maximal inhibitory concentration (IC50) was 47 nM. Also, at p110δ/p85α, the “PI3Kδ IH % @ 1 uM” value is on record as over 100% and the concentration for half-maximal inhibition (IC50) is 2 nM. On p110γ, the “PI3Kγ IH % @ 1 uM” value came to 94.1% and the IC50 was found to be 26 nM.
Turning to `N#C[C@H]1C[C@@H](c2nn3ccc(Cl)c3c(=O)n2-c2cccc(F)c2)N(c2ncnc3[nH]cnc23)C1` [Compound 347, (3S,5S)-5-(5-chloro-3-(3-fluorophenyl)-4-oxo-3,4-dihydropyrrolo[2,1-f][1,2,4]triazin-2-yl)-1-(9H-purin-6-yl)pyrrolidine-3-carbonitrile], on p110β/p85α, the “PI3Kβ IH % @ 1 uM” value is given as 87.8% and the IC50 was found to be 70 nM. Moreover, on p110δ/p85α, the “PI3Kδ IH % @ 1 uM” value is 98.3% and the IC50 amounted to 2 nM. Moreover, at p110γ, the “PI3Kγ IH % @ 1 uM” value is given as 91.8% and the IC50 was determined as 13 nM.
Take `C[S@+]([O-])c1c[nH]c2ncnc(N3C[C@@H](C#N)C[C@H]3c3nn4ccc(Cl)c4c(=O)n3-c3cccc(F)c3)c12` [Compound 348, (3S,5S)-5-(5-chloro-3-(3-fluorophenyl)-4-oxo-3,4-dihydropyrrolo[2,1-f][1,2,4]triazin-2-yl)-1-(5-((S)-methylsulfinyl)-7H-pyrrolo[2,3-d]pyrimidin-4-yl)pyrrolidine-3-carbonitrile]: the “PI3Kβ IH % @ 1 uM” value on p110β/p85α turned out to be 51.2%. Moreover, at p110δ/p85α, the “PI3Kδ IH % @ 1 uM” value is 96.9% and the IC50 was found to be 39 nM. Besides, at p110γ, the “PI3Kγ IH % @ 1 uM” value is on record as 75.6% and the IC50 came out at 312 nM.
Consider `C[S@@+]([O-])c1c[nH]c2ncnc(N3C[C@@H](C#N)C[C@H]3c3nn4ccc(Cl)c4c(=O)n3-c3cccc(F)c3)c12` [Compound 349, (3S,5S)-5-(5-chloro-3-(3-fluorophenyl)-4-oxo-3,4-dihydropyrrolo[2,1-f][1,2,4]triazin-2-yl)-1-(5-((R)-methylsulfinyl)-7H-pyrrolo[2,3-d]pyrimidin-4-yl)pyrrolidine-3-carbonitrile], for which, at p110β/p85α, the “PI3Kβ IH % @ 1 uM” value was 29.5%. Also, at p110δ/p85α, the “PI3Kδ IH % @ 1 uM” value turned out to be 92.6% and the IC50 came to 111 nM. Further, on p110γ, the “PI3Kγ IH % @ 1 uM” value amounted to 76.6% and the IC50 is 268 nM.
As for `N#Cc1c[nH]c2ncnc(N3C[C@@H](C#N)C[C@H]3c3nn4ccc(Cl)c4c(=O)n3-c3cccc(F)c3)c12` [Compound 350], at p110β/p85α, the “PI3Kβ IH % @ 1 uM” value is over 100% and the IC50 came to 35 nM. In addition, at p110δ/p85α, the “PI3Kδ IH % @ 1 uM” value was over 100% and the IC50 worked out at 1 nM. Further, on p110γ, the “PI3Kγ IH % @ 1 uM” value is recorded as over 100% and the IC50 came out at 4 nM.
As for `N#Cc1cnc(N)nc1N1C[C@@H](C#N)C[C@H]1c1nn2ccc(Cl)c2c(=O)n1-c1ccccc1` [Compound 351], on p110β/p85α, the “PI3Kβ IH % @ 1 uM” value is 89.6% and the IC50 amounted to 81 nM. Besides, on p110δ/p85α, the “PI3Kδ IH % @ 1 uM” value is given as over 100% and the IC50 turned out to be 1 nM. In addition, at p110γ, the “PI3Kγ IH % @ 1 uM” value came out at 95.5% and the IC50 was 3 nM.
As for `C[S+]([O-])c1n[nH]c2ncnc(N3CCC[C@H]3c3nn4ccc(Cl)c4c(=O)n3-c3ccccc3)c12` (stereo partly drawn) [Compound 352, 5-chloro-2-((2S)-1-(3-(methylsulfinyl)-1H-pyrazolo[3,4-d]pyrimidin-4-yl)pyrrolidin-2-yl)-3-phenylpyrrolo[2,1-f][1,2,4]triazin-4(3H)-one], the “PI3Kβ IH % @ 1 uM” value at p110β/p85α came to 40.7%. Moreover, on p110δ/p85α, the “PI3Kδ IH % @ 1 uM” value was over 100% and the IC50 amounted to 34 nM. Besides, on p110γ, the “PI3Kγ IH % @ 1 uM” value is given as 97.2% and the IC50 turned out to be 11 nM.
With `C[S+]([O-])c1n[nH]c2ncnc(N3CC[C@H]3c3nn4ccc(Cl)c4c(=O)n3-c3ccccc3)c12` (stereo partly drawn) [Compound 353], on p110β/p85α, the “PI3Kβ IH % @ 1 uM” value is recorded as 14.6%. Besides, on p110δ/p85α, the “PI3Kδ IH % @ 1 uM” value is given as 33.8%. For the same compound, on p110γ, the “PI3Kγ IH % @ 1 uM” value was found to be 79.2% and the IC50 turned out to be 223 nM.
In the case of `CC(O)c1cnc(N)nc1N1CC[C@H]1c1nn2ccc(Cl)c2c(=O)n1-c1ccccc1` (stereo partly drawn) [Compound 357, 2-((2S)-1-(2-amino-5-(1-hydroxyethyl)pyrimidin-4-yl)azetidin-2-yl)-5-chloro-3-phenylpyrrolo[2,1-f][1,2,4]triazin-4(3H)-one], the “PI3Kβ IH % @ 1 uM” value on p110β/p85α is given as 5%. The “PI3Kδ IH % @ 1 uM” value at p110δ/p85α was found to be 37.9%. Besides, the “PI3Kγ IH % @ 1 uM” value on p110γ is 66.2%.
Regarding `N#C[C@@H]1C[C@@H](c2nn3ccc(Cl)c3c(=O)n2-c2ccccc2)N(c2ncnc3[nH]cnc23)C1` [Compound 358, (3R,5S)-5-(5-chloro-4-oxo-3-phenyl-3,4-dihydropyrrolo[2,1-f][1,2,4]triazin-2-yl)-1-(9H-purin-6-yl)pyrrolidine-3-carbonitrile], on p110β/p85α, the “PI3Kβ IH % @ 1 uM” value was found to be 62.0% and the half-maximal inhibitory concentration (IC50) was determined as 269 nM. Besides, at p110δ/p85α, the “PI3Kδ IH % @ 1 uM” value is over 100% and the IC50 came to 17 nM. At p110γ, the “PI3Kγ IH % @ 1 uM” value was over 100% and the IC50 stood at 66 nM.
For `N#C[C@H]1C[C@@H](c2nn3ccc(Cl)c3c(=O)n2-c2ccccc2)N(c2ncnc3[nH]cnc23)C1` [Compound 359], on p110β/p85α, the “PI3Kβ IH % @ 1 uM” value is on record as 94.8% and the IC50 was determined as 44 nM. On p110δ/p85α, the “PI3Kδ IH % @ 1 uM” value is recorded as over 100% and the IC50 came to 1 nM. For the same compound, at p110γ, the “PI3Kγ IH % @ 1 uM” value is listed as over 100% and the IC50 stood at 3 nM.
`N#Cc1c[nH]c2ncnc(N3C[C@@H](C#N)C[C@H]3c3nn4ccc(Cl)c4c(=O)n3-c3ccccc3)c12` [Compound 360]: at p110β/p85α, the “PI3Kβ IH % @ 1 uM” value was 95.3% and the IC50 was 12 nM. Besides, on p110δ/p85α, the “PI3Kδ IH % @ 1 uM” value was determined as 99.2% and the IC50 came to 1 nM. At p110γ, the “PI3Kγ IH % @ 1 uM” value is over 100% and the IC50 worked out at 5 nM.
For `N#C[C@H]1C[C@@H](c2nn3ccc(Cl)c3c(=O)n2-c2ccc(F)cc2)N(c2ncnc3[nH]cnc23)C1` [Compound 361], at p110β/p85α, the “PI3Kβ IH % @ 1 uM” value is 79.2% and the IC50 was determined as 103 nM. Moreover, on p110δ/p85α, the “PI3Kδ IH % @ 1 uM” value was determined as 97.9% and the IC50 came out at 25 nM. Moreover, on p110γ, the “PI3Kγ IH % @ 1 uM” value is over 100% and the IC50 was found to be 27 nM.
As for `CCC(=O)c1cnc(N)nc1N1CC[C@H]1c1nn2ccc(Cl)c2c(=O)n1-c1ccccc1` [Compound 362], the “PI3Kβ IH % @ 1 uM” value at p110β/p85α stood at 4.1%. Further, on p110δ/p85α, the “PI3Kδ IH % @ 1 uM” value is reported as 56.0%. Also, at p110γ, the “PI3Kγ IH % @ 1 uM” value is 97.4% and the IC50 came to 40 nM.
